Measurements as given in the NIST ThermoML archive (doi:10.1021/je900598y).
± gives the expanded uncertainty stated by the source.

Tests used:
[1] = 298.15 K; 101.33 kPa; Liquid
[2] = excess molar enthalpy (molar enthalpy of mixing); xn = mol fraction of the nth substance listed; settings: 298.15 K, Liquid, Calvet calorimetry

CCCCCCCCCCCC [dodecane]
Settings	mass density [kg/m3]
[1]	745.28 ± 0.64

CCCCCC(=O)OC(=O)CCCCC [caproic anhydride] + CCCCCCCCCCCCCC
[2]
Settings	excess molar enthalpy [kcal/mol]
x1 = 0.0274	0.0479 ± 0.000693
x1 = 0.0533	0.0863 ± 0.00117
x1 = 0.0779	0.118 ± 0.00155
x1 = 0.1012	0.144 ± 0.00186
x1 = 0.1234	0.166 ± 0.00213
x1 = 0.1445	0.185 ± 0.00237
x1 = 0.1681	0.203 ± 0.00263
x1 = 0.1904	0.219 ± 0.00287
x1 = 0.2115	0.232 ± 0.00287
x1 = 0.2316	0.247 ± 0.00311
x1 = 0.2372	0.25 ± 0.00311
x1 = 0.2431	0.253 ± 0.00311
x1 = 0.2493	0.256 ± 0.00311
x1 = 0.2559	0.259 ± 0.00335
x1 = 0.2628	0.263 ± 0.00335
x1 = 0.2691	0.266 ± 0.00335
x1 = 0.2757	0.269 ± 0.00335
x1 = 0.2826	0.272 ± 0.00335
x1 = 0.2899	0.275 ± 0.00359
x1 = 0.2975	0.278 ± 0.00359
x1 = 0.3056	0.281 ± 0.00359
x1 = 0.3129	0.284 ± 0.00359
x1 = 0.3204	0.286 ± 0.00359
x1 = 0.3284	0.289 ± 0.00359
x1 = 0.3368	0.291 ± 0.00359
x1 = 0.3456	0.294 ± 0.00359
x1 = 0.3548	0.296 ± 0.00382
x1 = 0.363	0.298 ± 0.00382
x1 = 0.3715	0.3 ± 0.00382
x1 = 0.3805	0.301 ± 0.00382
x1 = 0.3899	0.303 ± 0.00382
x1 = 0.3998	0.305 ± 0.00382
x1 = 0.4012	0.306 ± 0.00382
x1 = 0.4103	0.307 ± 0.00382
x1 = 0.4199	0.308 ± 0.00382
x1 = 0.4299	0.309 ± 0.00382
x1 = 0.4404	0.31 ± 0.00382
x1 = 0.4514	0.31 ± 0.00382
x1 = 0.463	0.31 ± 0.00382
x1 = 0.4734	0.31 ± 0.00382
x1 = 0.4843	0.31 ± 0.00382
x1 = 0.4958	0.309 ± 0.00382
x1 = 0.5077	0.308 ± 0.00382
x1 = 0.5203	0.307 ± 0.00382
x1 = 0.5335	0.305 ± 0.00382
x1 = 0.5453	0.303 ± 0.00382
x1 = 0.5575	0.3 ± 0.00382
x1 = 0.5703	0.297 ± 0.00382
x1 = 0.5838	0.294 ± 0.00359
x1 = 0.5979	0.29 ± 0.00359
x1 = 0.6126	0.286 ± 0.00359
x1 = 0.6261	0.281 ± 0.00359
x1 = 0.6401	0.277 ± 0.00359
x1 = 0.6548	0.271 ± 0.00335
x1 = 0.6702	0.265 ± 0.00335
x1 = 0.6863	0.258 ± 0.00335
x1 = 0.7032	0.249 ± 0.00311
x1 = 0.7185	0.242 ± 0.00311
x1 = 0.7345	0.232 ± 0.00287
x1 = 0.7512	0.223 ± 0.00287
x1 = 0.7686	0.212 ± 0.00263
x1 = 0.7869	0.2 ± 0.00263
x1 = 0.8038	0.188 ± 0.00239
x1 = 0.8214	0.175 ± 0.00225
x1 = 0.8397	0.16 ± 0.00206
x1 = 0.8589	0.145 ± 0.00189
x1 = 0.879	0.127 ± 0.00165
x1 = 0.9001	0.108 ± 0.00143
x1 = 0.9185	0.0894 ± 0.0012
x1 = 0.9376	0.07 ± 0.000956
x1 = 0.9575	0.0488 ± 0.000717
x1 = 0.9783	0.0255 ± 0.00043

CCCCC(=O)OC(=O)CCCC [pentanoic anhydride] + CCCCCCCCCCCCCCCC
[2]
Settings	excess molar enthalpy [kcal/mol]
x1 = 0.0353	0.0694 ± 0.000956
x1 = 0.0683	0.125 ± 0.00165
x1 = 0.099	0.169 ± 0.00217
x1 = 0.1278	0.205 ± 0.00263
x1 = 0.1567	0.236 ± 0.00311
x1 = 0.1837	0.263 ± 0.00335
x1 = 0.209	0.284 ± 0.00359
x1 = 0.2329	0.302 ± 0.00382
x1 = 0.2553	0.317 ± 0.00406
x1 = 0.277	0.33 ± 0.00406
x1 = 0.2993	0.342 ± 0.0043
x1 = 0.3202	0.352 ± 0.0043
x1 = 0.3399	0.36 ± 0.00454
x1 = 0.3619	0.367 ± 0.00454
x1 = 0.3825	0.372 ± 0.00454
x1 = 0.4019	0.377 ± 0.00478
x1 = 0.42	0.38 ± 0.00478
x1 = 0.4371	0.382 ± 0.00478
x1 = 0.4532	0.383 ± 0.00478
x1 = 0.4705	0.384 ± 0.00478
x1 = 0.4866	0.384 ± 0.00478
x1 = 0.5018	0.383 ± 0.00478
x1 = 0.5161	0.382 ± 0.00478
x1 = 0.5296	0.381 ± 0.00478
x1 = 0.5424	0.379 ± 0.00478
x1 = 0.5564	0.377 ± 0.00478
x1 = 0.5695	0.374 ± 0.00478
x1 = 0.5819	0.371 ± 0.00454
x1 = 0.5935	0.368 ± 0.00454
x1 = 0.6046	0.365 ± 0.00454
x1 = 0.6168	0.363 ± 0.00454
x1 = 0.6292	0.358 ± 0.00454
x1 = 0.6421	0.353 ± 0.0043
x1 = 0.6556	0.348 ± 0.0043
x1 = 0.6696	0.342 ± 0.0043
x1 = 0.6842	0.335 ± 0.0043
x1 = 0.697	0.328 ± 0.00406
x1 = 0.7103	0.321 ± 0.00406
x1 = 0.7242	0.313 ± 0.00406
x1 = 0.7386	0.303 ± 0.00382
x1 = 0.7536	0.293 ± 0.00359
x1 = 0.7692	0.282 ± 0.00359
x1 = 0.7832	0.271 ± 0.00335
x1 = 0.7977	0.259 ± 0.00335
x1 = 0.8128	0.246 ± 0.00311
x1 = 0.8285	0.231 ± 0.00287
x1 = 0.8448	0.215 ± 0.00263
x1 = 0.8591	0.199 ± 0.00263
x1 = 0.8739	0.183 ± 0.00234
x1 = 0.8892	0.164 ± 0.0021
x1 = 0.905	0.145 ± 0.00186
x1 = 0.9214	0.123 ± 0.0016
x1 = 0.9361	0.103 ± 0.00136
x1 = 0.9513	0.0797 ± 0.00108
x1 = 0.967	0.0552 ± 0.000789
x1 = 0.9832	0.0282 ± 0.000454

CCCCC(=O)OC(=O)CCCC [pentanoic anhydride] + CCCCCCCCCCCCCC
[2]
Settings	excess molar enthalpy [kcal/mol]
x1 = 0.0319	0.0605 ± 0.00086
x1 = 0.0618	0.11 ± 0.00146
x1 = 0.0899	0.149 ± 0.00191
x1 = 0.1164	0.182 ± 0.00232
x1 = 0.1414	0.208 ± 0.00263
x1 = 0.165	0.232 ± 0.00287
x1 = 0.1873	0.251 ± 0.00311
x1 = 0.2126	0.271 ± 0.00335
x1 = 0.2363	0.287 ± 0.00359
x1 = 0.2587	0.3 ± 0.00382
x1 = 0.2798	0.311 ± 0.00382
x1 = 0.2997	0.32 ± 0.00406
x1 = 0.3186	0.328 ± 0.00406
x1 = 0.3364	0.335 ± 0.0043
x1 = 0.3569	0.342 ± 0.0043
x1 = 0.3714	0.35 ± 0.0043
x1 = 0.381	0.352 ± 0.0043
x1 = 0.3911	0.355 ± 0.00454
x1 = 0.402	0.357 ± 0.00454
x1 = 0.413	0.359 ± 0.00454
x1 = 0.4294	0.36 ± 0.00454
x1 = 0.4312	0.362 ± 0.00454
x1 = 0.4416	0.362 ± 0.00454
x1 = 0.4524	0.363 ± 0.00454
x1 = 0.4638	0.364 ± 0.00454
x1 = 0.4757	0.364 ± 0.00454
x1 = 0.4883	0.364 ± 0.00454
x1 = 0.5015	0.363 ± 0.00454
x1 = 0.5127	0.362 ± 0.00454
x1 = 0.5245	0.361 ± 0.00454
x1 = 0.5369	0.36 ± 0.00454
x1 = 0.5498	0.357 ± 0.00454
x1 = 0.5633	0.355 ± 0.00454
x1 = 0.5776	0.351 ± 0.0043
x1 = 0.5926	0.348 ± 0.0043
x1 = 0.6049	0.344 ± 0.0043
x1 = 0.6178	0.34 ± 0.0043
x1 = 0.6313	0.335 ± 0.0043
x1 = 0.6454	0.33 ± 0.00406
x1 = 0.6601	0.324 ± 0.00406
x1 = 0.6754	0.317 ± 0.00406
x1 = 0.6916	0.308 ± 0.00382
x1 = 0.7052	0.301 ± 0.00382
x1 = 0.7194	0.293 ± 0.00359
x1 = 0.7341	0.284 ± 0.00359
x1 = 0.7495	0.274 ± 0.00359
x1 = 0.7655	0.263 ± 0.00335
x1 = 0.7822	0.25 ± 0.00311
x1 = 0.7997	0.236 ± 0.00311
x1 = 0.8145	0.224 ± 0.00287
x1 = 0.8299	0.21 ± 0.00263
x1 = 0.8459	0.195 ± 0.00239
x1 = 0.8625	0.178 ± 0.00229
x1 = 0.8798	0.16 ± 0.00206
x1 = 0.8978	0.14 ± 0.00182
x1 = 0.9133	0.121 ± 0.00158
x1 = 0.9294	0.101 ± 0.00134
x1 = 0.9461	0.0789 ± 0.00108
x1 = 0.9634	0.0549 ± 0.000789
x1 = 0.9814	0.0287 ± 0.000478
